Assay results taken from US6727237B2, “Inhibitors of bacterial NAD synthetase” (priority 1998, dated 2004).
≈ marks a conversion by molar mass, not a printed value. Where “and” joins values, the source holds several entries; their conditions need not be identical. Identical values can stand only once.

Key:
[1] = system: Staphylococcus epidermitis; assay: Bacterial growth inhibition screen in LB media (absorbance 595 nm), percent inhibition; settings: for % Inhibition: S. epidermitis
[2] = system: Staphylococcus epidermitis; assay: Dose response of bacterial growth inhibition, MIC85; settings: minimum inhibitory concentration to achieve 85% inhibition, S. epidermitis
[3] = biological target: T1, bacterial NAD synthetase enzyme (Bacillus subtilis, UniProt P08164); assay: biochemical; format: biochemical; settings: for IC50: lead compounds (Table 318A), read-out: IC 50
T1 sequence (P08164 2-272 limits assumed): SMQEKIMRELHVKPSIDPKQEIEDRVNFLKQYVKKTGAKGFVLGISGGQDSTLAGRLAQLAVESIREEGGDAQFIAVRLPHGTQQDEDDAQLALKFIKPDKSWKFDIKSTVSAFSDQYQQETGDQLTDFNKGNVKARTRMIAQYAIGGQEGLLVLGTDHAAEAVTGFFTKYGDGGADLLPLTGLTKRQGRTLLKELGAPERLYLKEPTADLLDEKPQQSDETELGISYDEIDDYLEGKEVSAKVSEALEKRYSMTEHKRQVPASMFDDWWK

[4] = compound at 0.2 mM (Table 312A)

| Structure (SMILES) | % Inhibition ([1]; concentration screened 10 uM) | % Inhibition [3, 4] [%] | % Inhibition ([1]; concentration screened 100 uM) [%] | further results |
| --- | --- | --- | --- | --- |
| CN(C)c1ccc(CC(=O)OCCCCCCCCn2ccc3cc([N+](=O)[O-])ccc32)cc1 [Compound 852] | 98.58% |  |  | MIC85 [2]: 30 µM (≈ 13.5 µg/mL) |
| COC(=O)C=Cc1cn(CCCCCCC[n+]2ccccc2)c2ccccc12 [Compound 261] | 92.51% |  |  | MIC85 [2]: 30 µM |
| C[n+]1cc(C(=O)OCCCCCCn2ccc3cc(OCc4ccccc4)ccc32)cc2ccccc21 [Compound 827] | 95.86% |  |  | MIC85 [2]: 3.7 µM |
| C[n+]1cc(C(=O)OCCCCCn2ccc3cc(OCc4ccccc4)ccc32)cc2ccccc21 [Compound 826] | 92.57% |  |  | MIC85 [2]: 3.7 µM |
| C[N+](C)(C)c1cccc(C(=O)OCCCCCCCCn2ccc3cc(OCc4ccccc4)ccc32)c1 [Compound 809] | 99.81% |  |  | MIC85 [2]: 10 µM |
| O=C(OCCCCCCCn1ccc2cc([N+](=O)[O-])ccc21)c1cnc2ccccc2c1 [Compound 833] | 98.00% |  |  | MIC85 [2]: 10 µM (≈ 4.31 µg/mL) |
| C[N+](C)(C)c1cccc(C(=O)OCCCCCCn2ccc3cc(OCc4ccccc4)ccc32)c1 [Compound 807] | 97.22% |  |  | MIC85 [2]: 10 µM |
| CN(C)c1cccc(C(=O)OCCCCCCCn2ccc3cc([N+](=O)[O-])ccc32)c1 [Compound 839] | 99.35% |  |  | MIC85 [2]: 30 µM (≈ 12.7 µg/mL) |
| CN(C)c1ccc(CC(=O)OCCCCCCCn2ccc3cc([N+](=O)[O-])ccc32)cc1 [Compound 851] | 98.90% |  |  | MIC85 [2]: 30 µM (≈ 13.1 µg/mL) |
| COc1ccc2[nH]c(CCC[n+]3ccccc3)cc2c1 [Compound 372] | 67.34% |  |  | MIC85 [2]: 30 µM |
| c1ccc2[nH]c(CCCCC[n+]3cccc4ccccc43)cc2c1 [Compound 392] | 9.61% | 10.89 |  |  |
| O=[N+]([O-])c1cc([N+](=O)[O-])c2[nH]c(CCCCCC[n+]3ccccc3)cc2c1 [Compound 309] |  |  | 99.07 | % Inhibition ([3]; compound at 0.1 mM (Table 314)): 41.47% |
| c1ccc(-c2ccc3[nH]c(CCCCC[n+]4cccc5ccccc54)cc3c2)cc1 [Compound 434] | 5.64% | 5.36 |  |  |
| c1ccc2c[n+](CCCCCCCCc3cc4ccccc4[nH]3)ccc2c1 [Compound 503] | 7.82% | 37.04 |  |  |
| Fc1ccc2[nH]c(CCC[n+]3ccccc3)cc2c1 [Compound 342] | 14.97% | 11.92 |  |  |
| COc1ccc2[nH]c(CCCCC[n+]3cccc4ccccc43)cc2c1 [Compound 482] | 4.39% | 17.07 |  |  |
| O=[N+]([O-])c1ccc2[nH]c(CCCCC[n+]3cccc4ccccc43)cc2c1 [Compound 440] | 8.77% | 12.69 |  |  |
| CCCCc1ccc2[nH]c(CCCCCC[n+]3ccc4ccccc4c3)cc2c1 [Compound 531] | 8.77% | 36.55 |  |  |
| c1ccc(-c2ccc3[nH]c(CCCCCCCC[n+]4cccc5ccccc54)cc3c2)cc1 [Compound 437] | 11.84% | 6.91 |  |  |

| Structure (SMILES) | % Inhibition ([1]; concentration screened 10 uM) | % Inhibition [3, 4] [%] | % Inhibition ([1]; concentration screened 100 uM) [%] | further results |
| --- | --- | --- | --- | --- |
| O=C(O)c1ccc2[nH]c(CCCCC[n+]3ccccc3)cc2c1 [Compound 386] |  | 28.75 | 96.36 |  |
| CN(C)c1ccc(C(=O)OCCCCc2cc3cc(C(=O)c4ccccc4)ccc3[nH]2)cc1 [Compound 645] |  | 4.31 | 9.23 |  |
| CCCCc1ccc2[nH]c(CCCCC[n+]3ccc4ccccc4c3)cc2c1 [Compound 530] |  | 20.52 | 27.36 |  |
| c1ccc(Oc2ccc3[nH]c(CCCCCC[n+]4ccccc4)cc3c2)cc1 [Compound 351] |  | 65.08 | 99.57 |  |
| c1ccc(-c2ccc3[nH]c(CCCCCC[n+]4ccccc4)cc3c2)cc1 [Compound 327] |  |  | 100.00 | % Inhibition ([3]; compound at 0.1 mM (Table 314)): 55.31% |
| O=[N+]([O-])c1ccc2[nH]c(CCCC[n+]3cccc4ccccc43)cc2c1 [Compound 439] | 30.57% |  |  | % Inhibition ([3]; compound at 0.1 mM (Table 314)): 2.57% |
| C[n+]1cccc(C(=O)OCCCCCCn2ccc3cc([N+](=O)[O-])ccc32)c1 [Compound 865] | 50.42% and 48.55% | 46.43 | 94.40 |  |
| c1ccc(C(c2ccccc2)(c2ccccc2)c2ccc3[nH]c(CCCCC[n+]4ccccc4)cc3c2)cc1 [Compound 338] | 1.67% |  |  | % Inhibition ([3]; compound at 0.1 mM (Table 314)): 27.28% |
| CC(C)c1ccc2[nH]c(CCC[n+]3ccccc3)cc2c1 [Compound 318] | 2.99% | 14.94 |  |  |
| Fc1cc(F)c2[nH]c(CCCCCC[n+]3cccc4ccccc43)cc2c1 [Compound 411] | 15.74% | 8.84 |  |  |
| O=[N+]([O-])c1cc([N+](=O)[O-])c2[nH]c(CCCCCC[n+]3cccc4ccccc43)cc2c1 [Compound 417] | 7.80% | 14.59 |  |  |
| O=C(OCCCCCCCCc1cc2cc(C(F)(F)F)ccc2[nH]1)C(c1ccccc1)c1ccccc1 [Compound 653] |  | 20.59 | 8.42 |  |
| c1ccc(C(c2ccccc2)(c2ccccc2)c2ccc3[nH]c(CCCCCCCC[n+]4cccc5ccccc54)cc3c2)cc1 [Compound 449] | 7.73% | 8.67 |  |  |
| CC(=O)c1ccc2[nH]c(CCCCCC[n+]3cccc4ccccc43)cc2c1 [Compound 477] | 3.69% | 10.15 |  |  |
| Cc1ccc2[nH]c(CCCCCC[n+]3ccc4ccccc4c3)cc2c1 [Compound 513] |  | 23.66 | 17.86 |  |
| O=C(c1ccccc1)c1ccc2[nH]c(CCCC[n+]3ccccc3)cc2c1 [Compound 355] | 5.78% | 2.08 |  | % Inhibition ([3]; compound at 0.1 mM (Table 314)): 3.31% |
| CC(=O)c1ccc2[nH]c(CCCCC[n+]3cccc4ccccc43)cc2c1 [Compound 476] | 11.14% | 17.49 |  |  |
| COC(=O)C=Cc1cn(CCCCCCC[n+]2cccc(C(=O)OC)c2)c2ccccc12 [Compound 269] | 46.12% |  |  | % Inhibition ([3]; compound at 0.1 mM (Table 314)): 51.12% |
| COc1ccc2[nH]c(CCCCCCCC[n+]3ccc4ccccc4c3)cc2c1 [Compound 593] |  | 60.19 | 100.00 |  |

| Structure (SMILES) | % Inhibition ([1]; concentration screened 10 uM) | % Inhibition [3, 4] [%] | % Inhibition ([1]; concentration screened 100 uM) [%] | further results |
| --- | --- | --- | --- | --- |
| CC(C)c1ccc2[nH]c(CCCCCCCC[n+]3cccc4ccccc43)cc2c1 [Compound 431] | 22.28% | 10.77 |  |  |
| CC(=O)c1ccc2[nH]c(CCCCCCCOC(=O)C(c3ccccc3)c3ccccc3)cc2c1 [Compound 670] | 5.59% |  |  | % Inhibition ([3]; compound at 0.1 mM (Table 314)): 4.65% |
| COC(=O)c1ccc2[nH]c(CCCCC[n+]3ccc4ccccc4c3)cc2c1 [Compound 596] |  | 56.49 | 96.36 |  |
| Fc1cc(F)c2[nH]c(CCCCCC[n+]3ccccc3)cc2c1 [Compound 303] |  | 50.56 | 100.00 |  |
| O=C(O)c1ccc2[nH]c(CCCCCCCC[n+]3ccc4ccccc4c3)cc2c1 [Compound 605] |  | 68.65 | 44.29 |  |
| O=[N+]([O-])c1cc([N+](=O)[O-])c2[nH]c(CCCCC[n+]3ccc4ccccc4c3)cc2c1 [Compound 524] |  | 30.81 | 99.57 |  |
| CCCCc1ccc2[nH]c(CCCCC[n+]3cccc4ccccc43)cc2c1 [Compound 422] | 9.82% | 16.23 |  |  |
| CC(=O)c1ccc2[nH]c(CCCCCC[n+]3ccc4ccccc4c3)cc2c1 [Compound 585] | 2.09% | 17.43 |  |  |
| FC(F)(F)c1ccc2[nH]c(CCCCC[n+]3ccc4ccccc4c3)cc2c1 [Compound 578] |  | 30.96 | 97.79 |  |
| c1ccc(C(c2ccccc2)(c2ccccc2)c2ccc3[nH]c(CCCCCC[n+]4ccccc4)cc3c2)cc1 [Compound 339] |  | 42.87 | 100.00 |  |
| COc1ccc2[nH]c(CCCC[n+]3ccccc3)cc2c1 [Compound 373] | 1.53% | 14.13 |  | % Inhibition ([3]; compound at 0.1 mM (Table 314)): 7.72% |
| Fc1ccc2[nH]c(CCCC[n+]3cccc4ccccc43)cc2c1 [Compound 451] | 5.57% |  |  | % Inhibition ([3]; compound at 0.1 mM (Table 314)): 2.94% |
| O=C(O)c1ccc2[nH]c(CCC[n+]3cccc4ccccc43)cc2c1 [Compound 492] | 11.00% | 2.59 |  |  |
| O=[N+]([O-])c1cc([N+](=O)[O-])c2[nH]c(CCCC[n+]3cccc4ccccc43)cc2c1 [Compound 415] | 1.95% | 7.72 |  |  |
| O=C(OCCCCCCCCc1cc2cc(C(F)(F)F)ccc2[nH]1)c1ccccc1-c1ccccc1 [Compound 614] |  | 8.32 | 20.35 |  |
| O=C(c1ccccc1)c1ccc2[nH]c(CCCCC[n+]3ccccc3)cc2c1 [Compound 356] |  | 1.95 | 19.29 |  |
| CN(C)c1ccc(CC(=O)OCCCCCCn2ccc3cc([N+](=O)[O-])ccc32)cc1 [Compound 850] | 56.50% |  |  | % Inhibition ([3]; compound at 0.1 mM (Table 314)): 87.46%; IC50 [3]: 80 µM |
| c1ccc(-c2ccc3[nH]c(CCCCCCCC[n+]4ccc5ccccc5c4)cc3c2)cc1 [Compound 545] | 15.39% | 32.18 |  |  |
| C[n+]1cccc(C(=O)OCCCCn2ccc3cc(OCc4ccccc4)ccc32)c1 [Compound 765] |  |  |  | inhibition of growth at 10 µM ([1]; Staphylococcus, read-out: % Inhibition, S. epidermitis, concentration screened 10 uM): 9.31%; inhibition at 100 µM [3]: 90%; IC50 [3]: 90 µM |
